Data set [1] deals with MDA-MB-436. Nature of the data set: Antiproliferative activity against human MDA-MB-436 cells assessed as reduction in cell viability incubated for 72 hrs by CCK-8 assay. In kind it is functional, cell-based. Conditions: MDA-MB-436, 72 h. On the technique in general: Tetrazolium dyes change colour on reduction, which living cells bring about.
A further data set has as its system K562. Nature of the data set: Antiproliferative activity against human K562 cells assessed as reduction in cell growth incubated for 72 hrs by CCK-8 assay. In kind it is functional, cell-based. Conditions: K562, 72 h.
Data set [2] deals with MDA-MB-231. Nature of the data set: Antiproliferative activity against human MDA-MB-231 cells assessed as reduction in cell growth incubated for 72 hrs by CCK-8 assay. In kind it is functional, cell-based. The conditions noted are these: MDA-MB-231, 72 h.
The test system of a further data set is CAPAN-1. Nature of the data set: Antiproliferative activity against human CAPAN-1 cells assessed as reduction in cell viability incubated for 72 hrs by CCK-8 assay. In kind it is functional, cell-based. The conditions noted are these: CAPAN-1, 72 h.
The test system of the next data set is HCC1937. Nature of the data set: Antiproliferative activity against human HCC1937 cells assessed as reduction in cell viability incubated for 72 hrs by CCK-8 assay. In kind it is functional, cell-based. The conditions noted are these: HCC1937, 72 h.
The test system of data set [3] is MCF7. Nature of the data set: Antiproliferative activity against human MCF7 cells assessed as reduction in cell growth incubated for 72 hrs by CCK-8 assay. In kind it is functional, cell-based. Conditions: MCF7, 72 h.
Data set [4] has as its system A549. As to the kind of experiment: Antiproliferative activity against human A549 cells assessed as reduction in cell growth incubated for 72 hrs by CCK-8 assay. In kind it is functional, cell-based. Conditions: A549, 72 h.
Data set [5] deals with MDA-MB-231. As to the kind of experiment: Cytotoxicity against human MDA-MB-231 cells assessed as reduction in cell growth incubated for 72 hrs by alamar blue reagent based analysis. In kind it is functional. The conditions noted are these: MDA-MB-231, 72 h. Background: Resazurin is reduced to fluorescent resorufin, in cell work by metabolically active cells.
The test system of data set [6] is MCF7. Nature of the data set: Cytotoxicity against human MCF7 cells assessed as reduction in cell growth incubated for 72 hrs by alamar blue reagent based analysis. In kind it is functional. The conditions noted are these: MCF7, 72 h.
The subject of data set [7] is MDA-MB-436. As to the kind of experiment: Antiproliferative activity against human MDA-MB-436 cells. In kind it is functional, cell-based.
Data set [8] concerns the target Poly [ADP-ribose] polymerase 2 (Homo sapiens, UniProt Q9UGN5). As to the kind of experiment: Inhibition of PARP2 (unknown origin).
The target in data set [9] is T1, Poly [ADP-ribose] polymerase 1 (Homo sapiens, UniProt P09874). Nature of the data set: Inhibition of PARP1 (unknown origin).
T1 sequence (P09874 whole entry): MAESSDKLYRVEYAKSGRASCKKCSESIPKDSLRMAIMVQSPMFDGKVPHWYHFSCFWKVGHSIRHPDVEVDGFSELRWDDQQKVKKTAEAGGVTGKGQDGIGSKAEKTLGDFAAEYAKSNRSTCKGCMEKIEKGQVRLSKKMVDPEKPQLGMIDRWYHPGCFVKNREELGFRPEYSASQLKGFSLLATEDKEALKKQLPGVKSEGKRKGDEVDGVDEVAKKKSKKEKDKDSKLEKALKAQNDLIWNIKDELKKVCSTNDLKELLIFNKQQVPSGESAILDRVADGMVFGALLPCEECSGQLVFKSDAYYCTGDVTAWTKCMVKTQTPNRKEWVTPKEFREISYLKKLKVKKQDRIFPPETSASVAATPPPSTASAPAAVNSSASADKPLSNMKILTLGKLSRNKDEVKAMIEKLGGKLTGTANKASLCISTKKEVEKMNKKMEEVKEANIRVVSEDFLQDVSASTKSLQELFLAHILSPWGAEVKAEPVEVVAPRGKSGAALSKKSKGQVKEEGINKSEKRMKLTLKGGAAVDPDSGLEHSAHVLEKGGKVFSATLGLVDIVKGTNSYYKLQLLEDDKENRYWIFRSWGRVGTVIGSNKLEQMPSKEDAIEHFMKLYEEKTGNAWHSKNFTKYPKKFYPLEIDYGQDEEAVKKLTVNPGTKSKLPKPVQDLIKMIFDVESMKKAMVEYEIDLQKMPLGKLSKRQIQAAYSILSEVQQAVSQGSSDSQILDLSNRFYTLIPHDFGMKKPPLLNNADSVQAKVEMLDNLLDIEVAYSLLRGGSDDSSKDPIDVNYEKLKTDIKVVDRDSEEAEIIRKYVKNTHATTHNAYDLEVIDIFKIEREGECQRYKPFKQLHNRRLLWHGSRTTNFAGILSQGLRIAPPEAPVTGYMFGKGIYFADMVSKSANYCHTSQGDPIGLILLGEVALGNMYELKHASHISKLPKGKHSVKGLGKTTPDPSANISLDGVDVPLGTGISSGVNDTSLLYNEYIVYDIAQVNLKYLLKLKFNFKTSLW
The test system of data set [10] is MCF7. Nature of the data set: Antiproliferative activity against human MCF7 cells assessed as reduction in cell growth measured after 72 hrs by MTT assay. In kind it is functional, cell-based. The conditions noted are these: MCF7, 72 h.
The subject of data set [11] is MCF7. As to the kind of experiment: Antiproliferative activity against human MCF7 cells assessed as cell growth inhibition. In kind it is functional, cell-based.
Another data set relates to MX1. As to the kind of experiment: Antiproliferative activity against human MX1 cells assessed as cell growth inhibition. In kind it is functional, cell-based.
Data set [12] relates to HCT-116. Nature of the data set: Cytotoxicity against human HCT-116 cells assessed as reduction in cell growth incubated for 96 hrs by MTT assay. In kind it is functional, cell-based. The conditions noted are these: HCT-116, 96 h.
Data set [13] deals with HCT-116. As to the kind of experiment: Antiproliferative activity against human HCT-116 cells assessed as reduction in cell growth incubated for 24 hrs by MTT assay. Conditions: HCT-116, 24 h. In kind it is functional, cell-based.
The subject of the next data set is HepG2. Nature of the data set: Antiproliferative activity against human HepG2 cells assessed as reduction in cell growth incubated for 24 hrs by MTT assay. In kind it is functional, cell-based. Conditions: HepG2, 24 h.
In data set [14] the test system is A549. As to the kind of experiment: Antiproliferative activity against human A549 cells assessed as reduction in cell growth incubated for 24 hrs by MTT assay. In kind it is functional, cell-based. Conditions: A549, 24 h.
In data set [15] the test system is MCF7. As to the kind of experiment: Antiproliferative activity against human MCF7 cells assessed as reduction in cell growth incubated for 24 hrs by MTT assay. In kind it is functional, cell-based. Conditions: MCF7, 24 h.
Data set [16] relates to MDA-MB-436. Nature of the data set: Cytotoxicity against human MDA-MB-436 cells. In kind it is functional, cell-based.
The target in data set [17] is T1, Poly [ADP-ribose] polymerase 1. As to the kind of experiment: Inhibition of human recombinant PARP1 at 0.1 uM relative to control.
Data set [18] has the same target. Nature of the data set: Inhibition of human recombinant PARP1 at 0.01 uM relative to control.
Data set [19] in a line: Antiproliferative activity against human MCF10A cells assessed as inhibition of cell growth incubated for 72 hrs by alamar blue assay. In kind it is functional, cell-based. The conditions noted are these: MCF10AT1, 72 h.
In data set [20] the target is T1, Poly [ADP-ribose] polymerase 1. Nature of the data set: Inhibition of human recombinant PARP1 at 1 uM relative to control.
For data set [21] the target is unchanged. Nature of the data set: Inhibition of human recombinant PARP1 at 10 uM relative to control.
For data set [22] the target is unchanged. Nature of the data set: Inhibition of human recombinant PARP1 at 100 uM relative to control.
Data set [23] has the same target. As to the kind of experiment: Inhibition of human PARP1.
For another data set, the system named is Caco-2. Nature of the data set: Cytotoxicity against human Caco-2 cells assessed as inhibition of cell growth incubated for 72 hrs by CCK-8 assay. In kind it is functional, cell-based. The conditions noted are these: Caco-2, 72 h.
The nature of data set [24]: Cytotoxicity against African green monkey Vero cells. In kind it is toxicity, cell-based, Chlorocebus sabaeus.
Data set [25] concerns MCF7. As to the kind of experiment: Anticancer activity against human MCF7 cells assessed as reduction in cell viability. In kind it is functional, cell-based.

Chain of Poly [ADP-ribose] polymerase 2 (Q9UGN5 whole entry): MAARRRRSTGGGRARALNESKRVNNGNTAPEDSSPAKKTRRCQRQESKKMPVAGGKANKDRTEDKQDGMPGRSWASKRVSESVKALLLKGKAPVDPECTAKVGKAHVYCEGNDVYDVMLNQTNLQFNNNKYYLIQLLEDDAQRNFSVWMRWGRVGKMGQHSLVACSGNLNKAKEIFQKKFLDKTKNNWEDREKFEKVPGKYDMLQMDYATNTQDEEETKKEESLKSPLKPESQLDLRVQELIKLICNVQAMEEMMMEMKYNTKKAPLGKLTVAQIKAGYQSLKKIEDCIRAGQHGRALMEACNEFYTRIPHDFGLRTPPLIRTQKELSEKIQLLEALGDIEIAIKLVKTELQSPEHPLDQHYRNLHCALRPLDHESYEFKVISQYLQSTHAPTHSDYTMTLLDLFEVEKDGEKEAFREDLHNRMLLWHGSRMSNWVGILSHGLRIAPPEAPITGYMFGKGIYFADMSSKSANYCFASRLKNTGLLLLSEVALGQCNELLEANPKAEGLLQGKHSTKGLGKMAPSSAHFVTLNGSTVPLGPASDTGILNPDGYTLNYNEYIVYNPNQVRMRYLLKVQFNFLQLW

Consider `O=C(CCCc1ccc(N(CCCl)CCCl)cc1)N1CCN(C(=O)c2cc(Cc3n[nH]c(=O)c4ccccc34)ccc2F)CC1`, for which the IC50 – broadly, the concentration that inhibits the measured activity by half – came to 0.013 µM with MDA-MB-436 [1]; 10.4 µM in the data set on K562; 53.8 µM with MDA-MB-231 [2]; 0.086 µM with CAPAN-1; 0.18 µM in the data set on HCC1937; 30.6 µM in the data set on MCF7 [3]. Also, in the data set on A549 [4], the IC50 came to 1.62 µM.

Regarding `O=C(c1cc(Cc2n[nH]c(=O)c3ccccc23)ccc1F)N1CCN(C(=O)C2CC2)CC1` [OLAPARIB], the IC50 is 70.2 µM in the data set with MDA-MB-231 [5], 3.2 µM in the data set with MCF7 [6] and 8.9 µM in the data set with MDA-MB-436 [7].

For the compound `O=C1N[C@H](C2CC2)[C@@H](C(=O)N2CCC(N3CCCCC3)CC2)c2ccc(F)cc21`, the results for the IC50 in data set [8] and in [9] were 4.3 µM and 22 µM, respectively.

On to `O=C(Cn1c(=S)n(-c2ccccc2)c(=O)c2ccccc21)Nc1cccc2ccccc12`, for which the concentration for half-maximal inhibition (IC50) turned out to be 0.14 µM in [9] and 10.6 µM in the data set on MCF7 [10].

In the case of `O=C1NCC(c2ccc(-c3ccc(C(F)(F)F)cc3)cc2)Nc2ccccc21` (stereo not drawn), the IC50 with MCF7 [11] came out at 37.9 µM; in the data set on MX1 it was 24.6 µM.

As to `Nc1nc(S)nc2c1Oc1[nH]c(=O)[nH]c(=O)c1C2c1cccs1` (stereo not drawn), in the data set with HCT-116 [12], the IC50 was 9.31 µM.

For the compound `COc1ccc(Cc2nnc(-c3cccc(-c4ccnc(F)c4C)c3)o2)cc1OC`, the IC50 with MDA-MB-231 [5] came out at 19.2 µM; in the data set with MCF7 [6] it was 15.3 µM.

Take `O=C1CCc2cc(-c3ccccc3F)ccc2C2(CCCCC2)N1`: the IC50 in the data set on HCT-116 [13] was 3.94 µM; in data set [8] it was 0.0305 µM; in the data set with HepG2, 2.01 µM; in the data set on A549 [14] it was 3.67 µM; with MCF7 [15] it was 4.25 µM.

As for `COc1ccc(/C=C2\CC3(CC4C2OC(=O)C(C(C)=O)C4c2ccc(OC)cc2)OCCO3)cc1` (stereo not drawn), in the data set with MDA-MB-436 [16], the IC50 worked out at 7.47 µM.

With `COc1ccc(CSc2nccc(OCC(=O)N3CCN(c4ccc(C)cc4)CC3)n2)cc1`, the inhibition – broadly, the drop in the measured response relative to a control, in per cent – in [17] is 15.6%; in [18], 0.5%; in [20], 29.8%; in [21], 70.3%; in [22], 85.8%. Besides, the IC50 in data set [19] worked out at 46.9 µM.

With `COc1ccc(Cc2nnc(-c3cccc(-c4cccc(C=O)c4)c3)o2)cc1`, the IC50 stood at 29.3 µM with MDA-MB-231 [5] and 1.4 µM with MCF7 [6].

In turn, `Cc1c(C(=O)/C=C/c2cccc([N+](=O)[O-])c2)nnn1-c1ccc(Br)cc1` gave an IC50 in [23] of 0.00315 µM.

`O=c1[nH]c2c(c(=O)[nH]1)C(c1cccs1)c1[nH]c(=S)n(-c3ccccc3)c(=O)c1O2` (stereo not drawn): the half-inhibitory concentration (IC50) with HCT-116 [12] amounted to 46 µM.

For the compound `CCOC(=O)CO/N=C(\N)c1ccc(C)cc1`, the IC50 was determined as 0.4 µM in the data set on Caco-2, 0.48 µM in [24] and 0.32 µM with MCF7 [25].

The values above are taken from ChEMBL document CHEMBL5550171, “Poly (ADP-ribose) polymerase (PARP) inhibitors as anticancer agents: An outlook on clinical progress, synthetic strategies, biological activity, and structure-activity relationship” (Eur J Med Chem, 2024).
